According to patent publication US8536204B2, “Amides and thioamides as pesticides” (Bayer CropScience AG, priority 2009, dated 2013):
Like-named read-outs stand apart in the source and are kept apart here.

Key:
[1] = Determination of the logP values (formic acid method) by HPLC; type: physicochemical
Procedure: 1) Description of Method for Determining the LogP Values (Formic Acid Method)
The logP values reported in the table were determined according to EEC-Directive 79/831 Annex V.A8 by HPLC (High Performance Liquid Chromatography) on a reversed-phase column (C 18). Temperature: 55° C.
Eluents for the determination in the acidic range (pH 3.4):
Eluent A: acetonitrile+1 ml of formic acid/litre. Eluent B: water+0.9 ml of formic acid/litre.
Gradient: from 10% eluent A/90% eluent B to 95% eluent A/5% eluent B in 4.25 min.
The calibration was effected with unbranched alkan-2-ones (with 3 to 16 carbon atoms), whose logP values are known (determination of the logP values on the basis of the retention times by linear interpolation between two successive alkanones). The lambda-max values were determined with reference to the UV spectra from 200 nm to 400 nm in the maxima of the chromatographic signals.

[2] = test system: green peach aphid (Myzus persicae); assay: Myzus test (spray treatment); type: in vivo; conditions: 144 h, read-out: efficacy in % (100% means that all aphids have been killed); for pest or weed control at 50 g/ha: application rate 50 g/ha
Procedure: Myzus Test (Spray Treatment)
Solvent: • 78 parts by weight of acetone • 1.5 parts by weight of dimethylformamide
Emulsifier: 0.5 part by weight of alkylaryl polyglycol ether
To produce an appropriate active ingredient formulation, 1 part by weight of active ingredient is mixed with the amounts of solvent and emulsifier specified and the concentrate is diluted to the desired concentration with emulsifier-containing water.
Chinese cabbage leaf slices (Brassica pekinensis) infested by all stages of the green peach aphid (Myzus persicae) are sprayed with an active ingredient formulation of the desired concentration.
After 6 days, the efficacy in % is determined. 100% means that all aphids have been killed; 0% means that no aphids have been killed.

[3] = reversed-phase HPLC column (C 18), pH 3.4, HPLC on reversed-phase column (C 18), acidic range (pH 3.4), 55° C., Table 1, read-out: logP (HCOOH)
[4] = application rate 500 g/ha, spray on Chinese cabbage leaf slices, after 6 days
[5] = HPLC on reversed-phase column (C 18), acidic range (pH 3.4), 55° C., Table 1, read-out: logP (HCOOH)
[6] = reversed-phase HPLC column (C 18), pH 3.4, formic acid method, pH 3.4, given in the preparation examples, read-out: log P (HCOOH)
[7] = spray on Chinese cabbage leaf slices, after 6 days

SMILES	chromatographic logP [1, 3]	pest or weed control at 500 g/ha [2, 4]	further results
O=C(NCC1CC1)c1cnn(-c2cccnc2)c1 [Example 25]	1.16	100%	–
O=C(NCC(F)F)c1cnn(-c2cccnc2)c1 [Example 6]	0.87	100%	–
Cc1nn(-c2cccnc2)cc1C(=O)NCC(F)(F)C(F)(F)F [Example 31]	1.95	100%	–
Cc1nn(-c2cccnc2)cc1C(=O)NC(C)C1CC1 (centres unmarked) [Example 26]	1.58	100%	logP (HCOOH) ([1]; HPLC on reversed-phase column (C 18), acidic range (pH 3.4), 55° C., Table 1): 1.45
CN(C(=O)c1cnn(-c2cccnc2)c1)C(C)(C)C#N [Example 42]	1.09	100%	–
COC(=O)C1(NC(=O)c2cnn(-c3cccnc3)c2)CC1 [Example 45]	0.84	100%	–
Cc1nn(-c2cccnc2)cc1C(=O)NCc1ccccn1 [Example 28]	0.52	100%	–
O=C(NCc1ccccn1)c1cnn(-c2cccnc2)c1 [Example 16]	0.31	100%	–
Cc1nn(-c2cccnc2)cc1C(=O)NCCOc1cc(Cl)ccc1Cl [Example 57]	2.56	–	–
CC(C)C(C#N)NC(=O)c1cnn(-c2cccnc2)c1 (centres unmarked) [Example 41]	1.4	100%	–
COc1cc(OC)nc(CNC(=O)c2cnn(-c3cccnc3)c2)n1 [Example 51]	1.37	–	–
Cc1nn(-c2cccnc2)cc1C(=O)NCC(F)F [Example 46]	1.12	100%	–
COC(=O)N(C)NC(=O)c1cn(-c2cccnc2)nc1C [Example 54]	–	100%	chromatographic logP [1, 5]: 0.79
Cc1nn(-c2cccnc2)cc1C(=O)NCC1Cc2ccccc2O1 (centres unmarked) [Example 56]	1.9	–	–
O=C(NCc1nc(C2CC2)no1)c1cnn(-c2cccnc2)c1 [Example 20]	1.21	100%	–
N#Cc1cnn(-c2cccnc2)c1 [1-(Pyridin-3-yl)-1H-pyrazole-4-carbonitrile]	–	–	chromatographic logP [1, 6]: 0.98
CN(C)C(=O)c1cnn(-c2cccnc2)c1 [Example 4]	0.6	–	pest or weed control at 50 g/ha [2, 7]: 90%
O=C(NCC1Cc2ccccc2O1)c1cnn(-c2cccnc2)c1 (centres unmarked) [Example 17]	1.68	–	–
Cc1nn(-c2cccnc2)cc1C(=O)NCC1COCCO1 (centres unmarked) [Example 34]	0.91	100%	–
CCOC(=O)c1cn(-c2cccnc2)nc1C [Ethyl 3-methyl-1-(pyridin-3-yl)-1H-pyrazole-4-carboxylate]	–	–	chromatographic logP [1, 6]: 1.83

SMILES	chromatographic logP [1, 3]	pest or weed control at 500 g/ha [2, 4]	further results
COC(CNC(=O)c1cn(-c2cccnc2)nc1C)OC [Example 35]	1.04	100%	–
CC(F)(F)CNC(=O)c1cnn(-c2cccnc2)c1 [Example 15]	1.11	100%	–
O=C(NC1CC1)c1cnn(-c2cccnc2)c1 [Example 18]	0.78	100%	–
COC(CNC(=O)c1cnn(-c2cccnc2)c1)OC [Example 24]	0.83	100%	–
Cc1nn(-c2cccnc2)cc1C(=O)NCc1ncccn1 [Example 7]	0.78	100%	–
CON(C)C(=O)c1cnn(-c2cccnc2)c1 [Example 11]	0.97	–	–
Cc1nn(-c2cccnc2)cc1C(=O)NC1(C(F)(F)F)CC1 [Example 47]	1.63	100%	–
FC(F)(F)CNC(=S)c1cnn(-c2cccnc2)c1 [Example 12, 1-(Pyridin-3-yl)-N-(2,2,2-trifluoroethyl)-1H-pyrazole-4-carbothioamide]	1.97	80%	chromatographic logP [1, 6]: 1.97
N#CCNC(=O)c1cnn(-c2cccnc2)c1 [Example 40]	0.52	100%	–
Cc1nn(-c2cccnc2)cc1C(=O)NCC(C)(F)F [Example 27]	1.35	100%	–
O=C(NCc1ncccn1)c1cnn(-c2cccnc2)c1 [Example 5]	0.51	100%	–
O=C(NC1(C(F)(F)F)CC1)c1cnn(-c2cccnc2)c1 [Example 13]	1.4	100%	–
O=C(O)c1cnn(-c2cccnc2)c1 [1-(Pyridin-3-yl)-1H-pyrazole-4-carboxylic acid]	–	–	chromatographic logP [1, 6]: 0.5
Cc1nn(-c2cccnc2)cc1C(=O)NCC(F)(F)F [Example 2, 3-Methyl-1-(pyridin-3-yl)-N-(2,2,2-trifluoroethyl)-1H-pyrazole-4-carboxamide]	1.45	–	chromatographic logP [1, 6]: 1.45; pest or weed control at 500 g/ha ([2]; in Brassica rapa): 100%
CCNC(=O)c1cn(-c2cccnc2)nc1C [Example 39]	0.91	100%	–
Cc1nn(-c2cccnc2)cc1C(=O)NCC#N [Example 44]	0.79	–	–
COC(=O)C(C)NC(=O)c1cnn(-c2cccnc2)c1 (centres unmarked) [Example 55]	0.91	–	pest or weed control at 50 g/ha [2, 7]: 90%
Cc1cc(C)nc(CNC(=O)c2cn(-c3cccnc3)nc2C)n1 [Example 49]	1.2	100%	–
Cc1nn(-c2cccnc2)cc1C(=O)NCC1OCCO1 [Example 33]	0.88	100%	–
COC(=O)C(C)NC(=O)c1cn(-c2cccnc2)nc1C (centres unmarked) [Example 43]	1.14	100%	–

SMILES	chromatographic logP [1, 3]	pest or weed control at 500 g/ha [2, 4]	further results
Cc1nn(-c2cccnc2)cc1C(=O)O [3-Methyl-1-(pyridin-3-yl)-1H-pyrazole-4-carboxylic acid]	–	–	chromatographic logP [1, 6]: 0.77
O=C(NCCC(F)(F)F)c1cnn(-c2cccnc2)c1 [Example 21]	1.31	100%	–
COC(=O)NNC(=O)c1cn(-c2cccnc2)nc1C [Example 50]	–	100%	chromatographic logP [1, 5]: 0.52
CN(C(=O)c1cnn(-c2cccnc2)c1)C1CC1 [Example 19]	1.09	100%	–
Cc1nn(-c2cccnc2)cc1C(=O)N(C)C1CC1 [Example 29]	1.17	100%	–
O=C(NCC1OCCO1)c1cnn(-c2cccnc2)c1 [Example 22]	0.66	100%	–
Cc1nn(-c2cccnc2)cc1C(=O)N(C)C [Example 10]	0.7	100%	–
Cc1nn(-c2cccnc2)cc1C(=O)NCC1CC1 [Example 36]	1.32	100%	–
CN(CC(F)(F)F)C(=O)c1cnn(-c2cccnc2)c1 [Example 8]	1.43	100%	–
CC(NC(=O)c1cnn(-c2cccnc2)c1)C1CC1 (centres unmarked) [Example 14]	1.38	100%	–
CCNC(=O)c1cnn(-c2cccnc2)c1 [Example 1, N-Ethyl-1-(pyridin-3-yl)-1H-pyrazole-4-carboxamide]	0.64	–	chromatographic logP [1, 6]: 0.64; pest or weed control at 500 g/ha ([2]; in Brassica rapa): 100%
Cc1nn(-c2cccnc2)cc1C(=O)NCc1nc(C2CC2)no1 [Example 48]	1.43	100%	–
N#CC1(NC(=O)c2cnn(-c3cccnc3)c2)CC1 [Example 53]	0.76	–	pest or weed control at 50 g/ha [2, 7]: 90%
O=C(NCC1COCCO1)c1cnn(-c2cccnc2)c1 (centres unmarked) [Example 23]	0.7	100%	–
Cc1nn(-c2cccnc2)cc1C(=O)NCCF [Example 38]	0.87	100%	–
Cc1nn(-c2cccnc2)cc1C(=O)NCCC(F)(F)F [Example 32]	1.52	100%	–
Cc1nn(-c2cccnc2)cc1C(=O)N(C)CC(F)(F)F [Example 37]	1.57	100%	–
O=C(NCC(F)(F)C(F)(F)F)c1cnn(-c2cccnc2)c1 [Example 52]	1.69	–	pest or weed control at 50 g/ha [2, 7]: 90%
